From patent US20160228387A1, “SOLUBILIZED FORMULATION OF COQ10 FOR USE IN TREATMENT OF PARKINSON'S DISEASE” (NATIONAL RESEARCH COUNCIL OF CANADA (NRC), priority 2013, published 2016)
“And” between values parts separate entries of the source, which are not always exact repeats. Equal entries are not always repeated.

Columns and labels:
[1] = Dispersion and stability in water; type: physicochemical; details: added to water
From the text: Based on the chemical structure, a-tocopherol constitutes 35.6% or one-third of the PTS molecule (Borowy-Borowski et al., 2004).

PD patients = details: clinical trials in humans; cited from earlier work
[2] = test system: TH-positive neurons in SNpc; test: MPTP-induced neurodegeneration in mice: stereological count of TH-positive neurons in SNpc
Method: (§1) To induce the dopaminergic neurodegeneration, male C57BL/6 mice were acclimatized to the new environment for 7 days before the start of the experiment. Animals were randomly divided into experimental groups and given 5 daily injections of MPTP (25 mg/kg/injection). Control mice were injected with saline. On days 5, 8, 14, 28, and 45 after the MPTP injections, mice were sacrificed and brain tissue was collected for immunohistochemistry, stereology, and biochemical analyses. Brains were fixed and immunostained with rabbit polyclonal anti-tyrosine hydroxylase antibody (brown) and counterstained with cresyl violet (blue) for anatomic reference. TH-positive cells were counted using an unbiased stereology method and cell survival was plotted as percentage of control.
Mice were acclimatized for 7 days before the start of the experiment and were randomly divided into 3 experimental groups (I-III). Groups I and II were given regular water throughout the duration of the experiment. […] Groups II and III received 5 daily intraperitoneal injections of MPTP (25 mg/kg/injection) whereas, group I was injected with saline. At the conclusion of the experiment on D28, all animals were sacrificed and brain tissue was collected for immunohistochemistry, sterology, and Western blot.
Mice were acclimatized to the new environment for 7 days before the start of the experiment and were randomly divided into 3 experimental groups (I-III). Control group I was injected with saline and groups II and III received 5 daily MPTP injections (25 mg/kg/injection). […] The supplementation continued until the conclusion of the experiment on D28.
At the conclusion of the experiment on day 28 (D28), all mice were sacrificed and brains were collected for immunohistochemistry and stereology. Brains were fixed and immunostained with rabbit polyclonal anti-tyrosine hydroxylase antibody (brown) and counterstained with cresyl violet (blue) for anatomic reference. Images were captured on an Olympus microscope equipped with Microcast 3CCD 1080p HD color camera system.
(§2) Mice were acclimatized for 7 days before the start of the experiment and were randomly divided into 4 experimental groups (I-IV). Control group I was injected with saline and groups II-IV with MPTP (5×25 mg/kg). Mice in groups I and II were drinking regular water throughout the duration of the experiment. […] At the conclusion of the experiment (D28), all mice were sacrificed and brains were collected for immunohistochemistry, stereology, and biochemistry. Brains were fixed and immunostained with rabbit polyclonal anti-tyrosine hydroxylase antibody and counterstained with cresyl violet. Images were captured on an Olympus microscope equipped with Microcast 3CCD 1080p HD color camera.
Mice were acclimatized to the new environment and were randomly divided into 4 experimental groups (I, II, V, and VI).

striatal dopamine = test: Striatal dopamine content in MPTP-treated mice
Method: as §1, §2

MPTP-treated mice = test: Beam walk test (faults) in MPTP-treated mice; details: MPTP alone (group II), D10
Method: As an additional step, the beam walk test, described above, was used to assess motor skills. The handling and training of mice on the test apparatus were performed before the MPTP injections. Mice were acclimatized to the new environment for 7 days (D[-21]-D[-14]) before the handling (D[-14]-D[-7]) and training (D[-7]-D1). Animals were randomly divided into 3 experimental groups (I-III). […] Animals were allowed to cross a 5-mm square and a 100-cm long beam and the number of faults, as well as the time taken to walk the beam, were recorded.

TH-positive neurons = test: PQ-induced neurodegeneration in rats: stereological count of TH-positive neurons in midbrain sections; type: in vivo, Long Evans Hooded rats; details: for total number of TH positive neurons: mean ± SD
Method: Long Evans Hooded rats were given 5 intraperitoneal injections of PQ at a dose of 10 mg/kg body weight/injection dissolved in phosphate buffered saline (PBS), one injection every five days over a period of 20 days. Control rats received intraperitoneal injections of PBS alone. Brain tissue was examined immediately after the last PQ injection and, subsequently, 4 weeks and 8 weeks later. […] Fresh drinking solutions were provided every second day. At the conclusion of experimental treatments, rats were perfused with Tyrodes buffer containing heparin, the tissues were fixed with 10% formalin, and the brains extracted and stored in the 10% formalin until processing for immunohistochemistry. Animals were sacrificed at different time points for up to 8 weeks post-PQ exposure. Midbrain sections were prepared, immunostained with anti-tyrosine hydroxylase antibody and TH-positive neurons were counted using a stereologer in an unbiased manner.
The Ubisol-Q10 intervention was applied after the completion of PQ injections described above. By this time, neurodegenerative processes in the brain had already begun. […] This treatment began when nearly 18% of SN neurons were already lost (PQ1 group), but the question was whether the remaining vulnerable neurons could be saved. The midbrain sections were immunostained with anti-TH antibodies, and the stained neurons were counted using a stereologer in an unbiased manner.
There was also significant neuroprotection in the rats that received the Ubisol-Q10 supplemented drinking water for eight weeks post injections.

rats exposed to PQ = test: Horizontal beam-walking test (leg slips) in PQ-treated rats; type: in vivo, rat; details: PQ alone (PQ3), 1st test phase, p<0.05
Method: Deficiency in motor function is a hallmark of PD. Motor skills of the rats treated in Example 2 were assessed using the beam walk test. All rats were assessed for performance on a horizontal beam-walking test for motor skills/motor deficits as measured by leg slips. The aluminium beam was 1.68 metres in length, 2 centimetres in width and 0.75 metres from the ground. A mirror was placed behind the beam, measuring 1.78 metres in length and 0.3 metres in height. Four weeks after the last injection, rats underwent one trial per day for four consecutive days (one training trial and three test trials). Eight weeks after the last injection another three test trials were performed (one trial per day). In the training trial, rats ran down the beam to the holding cage on a flat platform three times, each time with different distances between the holding cage and starting position. The first position was a quarter of the beam length, the second was half, and the last was the entire distance of the beam. […]
Rats received a small slice of apple in the holding cage located on a table at the end of the beam. […] The test trials were recorded using a standard video camera, located 2 metres perpendicular to the beam. The number of hind leg slips made from either leg during each test trial was later noted from viewing the recorded video clips. […]

[3] = vitamin E alone; cited from earlier work

Compound: COC1=C(OC)C(=O)C(CC=C(C)CCC=C(C)CCC=C(C)CCC=C(C)CCC=C(C)CCC=C(C)CCC=C(C)CCC=C(C)CCC=C(C)CCC=C(C)C)=C(C)C1=O [CoQ10, 2,3-dimethoxy, 5-methyl, 6-polyisoprene para-benzoquinone]
- behaviour in water [1]: floats on the surface as insoluble material
- clinical benefit against PD (PD patients): no clinical benefit

Compound: CN1CC=C(c2ccccc2)CC1 [MPTP, 1-methyl-4-phenyl-1,2,3,6-tetrahydropyridine]
- loss of TH-positive neurons ([2]; MPTP alone (5 x 25 mg/kg i.p.), day 28): 51.6% and 50%
- number of tyrosine hydroxylase-positive neurons, mean ([2]; MPTP alone (Table 9; control = 100)): 66
- surviving TH neurons (percentage of control) ([2]; MPTP alone, D28 (Table 5)): 50.3 ± 7.3%
- survival of TH-positive neurons ([2]; MPTP alone, day 45): 50%
- number of TH-positive neurons in SNpc ([2]; MPTP alone, regular water, D28 (Table 6)): 3281 ± 291 and 3320 ± 700
- number of TH positive neurons in SNpc ([2]; MPTP alone, regular water, D56): 4192 ± 295
- striatal dopamine level reduced to (striatal dopamine; MPTP alone (group II), by D28): 50%
- striatal dopamine level (striatal dopamine; MPTP alone, D28 (Table 7)): 15.1 ± 2.2
- decrease of striatal dopamine content (striatal dopamine; MPTP alone, by day 28): ~50%
- number of faults on beam walk, average (MPTP-treated mice): ~7 faults

Compound: C[n+]1ccc(-c2cc[n+](C)cc2)cc1 [PQ, paraquat]
- total number of TH positive neurons (TH-positive neurons; PQ alone (5 x 10 mg/kg i.p.), 0 weeks after last PQ injection (PQ1)): 8722 ± 3559
- loss of DA (TH-positive) neurons versus control (TH-positive neurons; PQ alone, during the PQ injection period (PQ1)): ~18% and ~15%
- total number of TH positive neurons (TH-positive neurons; PQ alone, regular water, 4 weeks after PQ injections (PQ2)): 6006 ± 1928 and 6227 ± 1682
- total number of TH positive neurons (TH-positive neurons; PQ alone, regular water, 8 weeks after PQ injections (PQ3)): 5114 ± 1562 and 4661 ± 1097
- number of leg slips versus the other three groups (rats exposed to PQ): significantly greater

Compound: Cc1c(C)c2c(c(C)c1O)CC[C@@](C)(CCC[C@H](C)CCC[C@H](C)CCCC(C)C)O2 [vitamin E, α-tocopherol]
- effect on neuroprotection [3]: did not have a significant effect

Compound: polyoxyethanyl-cholesteryl sebacate [PCS]
- number of tyrosine hydroxylase-positive neurons, mean ([2]; in drinking water from 2 weeks before to 3 weeks after MPTP injections (Table 9; control = 100)): 58
